Where a name gives a salt, the structure may show the parent alone.
Molecular target: PCAF719-832 bromodomain (Homo sapiens (Human), UniProt Q92831)
Test: PCAF AlphaLisa binding assay
Conditions: PCAF bromodomain 225 nM, biotinylated small molecule ligand 6 nM
Protocol: PCAF bromodomain binding and inhibition of the compounds disclosed herein was assessed by monitoring the engagement of biotinylated small molecule ligand (known to bind to the PCAF bromodomain) with the target using the AlphaLisa technology (Perkin-Elmer).

Chain of PCAF719-832 bromodomain (Q92831 719-832): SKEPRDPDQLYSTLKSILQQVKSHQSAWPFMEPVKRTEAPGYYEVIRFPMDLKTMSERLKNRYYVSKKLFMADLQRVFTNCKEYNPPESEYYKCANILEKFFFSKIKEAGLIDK

Compound	IC50 [nM]
C[C@H](Nc1nn(C)c(=O)c2cccnc12)[C@H](c1ccc(S(=O)(=O)c2ccccc2)cc1)N(C)C (single isomer, unassigned) [Example 74A]	20
C[C@@H](Nc1nn(C)c(=O)c2cccnc12)[C@@H](c1ccc(S(=O)(=O)c2ccccc2)cc1)N(C)C (single isomer, unassigned) [Example 74B]	2300
CC(Nc1nn(C)c(=O)c2cccnc12)C(c1cn(C)nn1)N(C)C (single isomer, unassigned) [Example 75, 8-((1-(dimethylamino)-1-(1-methyl-1H-1,2,3-triazol-4-yl)propan-2-yl)amino)-6-methylpyrido[2,3-d]pyridazin-5(6H)-one]	130
C[C@H](Nc1nn(C)c(=O)c2ccccc12)[C@H](c1ccc(OCC2CC2)cc1)N(C)C (single isomer, unassigned) [Example 78]	44
COc1ccc([C@@H]([C@H](C)Nc2nn(C)c(=O)c3ccccc23)N(C)C)cc1 (single isomer, unassigned) [Example 79]	73
C[C@H](Nc1nn(C)c(=O)c2ccccc12)[C@H](c1ccc(Oc2ccccn2)cc1)N(C)C (single isomer, unassigned) [Example 80]	46
C[C@H](Nc1nn(C)c(=O)c2cccnc12)[C@H](c1ccc(C(=O)N(C)Cc2ccccc2)cc1)N(C)C (single isomer, unassigned) [Example 84]	56
CNC(=O)c1ccc([C@@H]([C@H](C)Nc2nn(C)c(=O)c3cccnc23)N(C)C)cc1 (single isomer, unassigned) [Example 85]	50
C[C@H](Nc1nn(C)c(=O)c2ccccc12)[C@H](c1ccc(OCc2ccccc2)cc1)N(C)C (stereo in doubt) [Example 77, 4-((1-(4-(benzyloxy)phenyl)-1-(dimethylamino)propan-2-yl)amino)-2-methylphthalazin-1(2H)-one]	36
CN(C)C(CNc1nn(C)c(=O)c2cccnc12)c1ccccc1 (stereo not drawn) [Example 1, 8-((2-(dimethylamino)-2-phenylethyl)amino)-6-methylpyrido[2,3-d]pyridazin-5(6H)-one]	86
CN(C)[C@H](CNc1nn(C)c(=O)c2cccnc12)c1ccccc1 [Example 1A, (S)-8-((2-(dimethylamino)-2-phenylethyl)amino)-6-methylpyrido[2,3-d]pyridazin-5(6H)-one]	45
CN(C)[C@@H](CNc1nn(C)c(=O)c2cccnc12)c1ccccc1 [Example 1B, (R)-8-((2-(dimethylamino)-2-phenylethyl)amino)-6-methylpyrido[2,3-d]pyridazin-5(6H)-one]	2200
CN(C)CCNc1nn(C)c(=O)c2cccnc12 [Example 2, 8-((2-(dimethylamino)ethyl)amino)-6-methylpyrido[2,3-d]pyridazin-5(6H)-one]	140
COc1ccc2c(=O)n(C)nc(NCCN(C)C)c2c1 [Example 3, 4-((2-(dimethylamino)ethyl)amino)-6-methoxy-2-methylphthalazin-1(2H)-one]	410
COc1ccc2c(NCCN(C)C)nn(C)c(=O)c2c1 [Example 4, 4-((2-(dimethylamino)ethyl)amino)-7-methoxy-2-methylphthalazin-1(2H)-one]	470
CN(C)CCNc1nn(C)c(=O)c2cccc(F)c12 [Example 5, 4-((2-(dimethylamino)ethyl)amino)-5-fluoro-2-methylphthalazin-1(2H)-one]	130
CN(C)CCNc1nn(C)c(=O)c2c(F)cccc12 [Example 6, 4-((2-(dimethylamino)ethyl)amino)-8-fluoro-2-methylphthalazin-1(2H)-one]	87
CN(C)CCSc1nn(C)c(=O)c2ccccc12 [Example 9, 4-((2-(dimethylamino)ethyl)thio)-2-methylphthalazin-1(2H)-one]	890
CN1CC(Nc2nn(C)c(=O)c3cccnc23)C1 [Example 18, 6-methyl-8-((1-methylazetidin-3-yl)amino)pyridol[2,3-d]pyridazin-5(6H)-one]	1500
Cn1nc(NC2CNC2)c2ncccc2c1=O [Example 19, 8-(azetidin-3-ylamino)-6-methylpyrido[2,3-d]pyridazin-5(6H)-one]	3400
CCN(CC)CCNc1nn(C)c(=O)c2ccccc12 [Example 23, 4-((2-(diethylamino)ethyl)amino)-2-methylphthalazin-1(2H)-one]	2400

Compound	IC50 [nM]
Cn1nc(NCCN2CCCC2)c2ccccc2c1=O [Example 24, 2-methyl-4-((2-(pyrrolidin-1-yl)ethyl)amino)phthalazin-1(2H)-one]	920
CN(C)CCNc1nn(C)c(=O)c2ccccc12 [Example 29, 4-((2-(dimethylamino)ethyl)amino)-2-methylphthalazin-1(2H)-one]	150
CC(C)NCCNc1nn(C)c(=O)c2ccccc12 [Example 40, 4-((2-(isopropylamino)ethyl)amino)-2-methylphthalazin-1(2H)-one]	9400
Cn1nc(NCCN2CCCCC2)c2ccccc2c1=O [Example 41, 2-methyl-4-((2-(piperidin-1-yl)ethyl)amino)phthalazin-1(2H)-one]	2200
CN1CCN(CCNc2nn(C)c(=O)c3ccccc23)CC1 [Example 42, 2-methyl-4-((2-(4-methylpiperazin-1-yl)ethyl)amino)phthalazin-1(2H)-one]	9600
CN(C)[C@@H]1c2ccccc2C[C@@H]1Nc1nn(C)c(=O)c2cccnc12 [Example 46A, 8-(((1R,2S)-1-(dimethylamino)-2,3-dihydro-1H-inden-2-yl)amino)-6-methylpyrido[2,3-d]pyridazin-5(6H)-one]	4800
CN(C)[C@H]1c2ccccc2C[C@H]1Nc1nn(C)c(=O)c2cccnc12 [Example 46B, 8-(((1S,2R)-1-(dimethylamino)-2,3-dihydro-1H-inden-2-yl)amino)-6-methylpyrido[2,3-d]pyridazin-5(6H)-one]	> 5000
CN(C)[C@@H]1c2ccccc2C[C@@H]1Nc1nn(C)c(=O)c2ccccc12 [Example 47A, 4-(((1R,2S)-1-(dimethylamino)-2,3-dihydro-1H-inden-2-yl)amino)-2-methylphthalazin-1(2H)-one]	2700
CN(C)[C@H]1c2ccccc2C[C@H]1Nc1nn(C)c(=O)c2ccccc12 [Example 47B, 4-(((1S,2R)-1-(dimethylamino)-2,3-dihydro-1H-inden-2-yl)amino)-2-methylphthalazin-1(2H)-one]	> 5000
CN(C)CCOc1nn(C)c(=O)c2ccccc12 [Example 48, 4-(2-(dimethylamino)ethoxy)-2-methylphthalazin-1(2H)-one]	450
COCCN(C)CCNc1nn(C)c(=O)c2ccccc12 [Example 49, 4-((2-((2-methoxyethyl)(methyl)amino)ethyl)amino)-2-methylphthalazin-1(2H)-one]	3500
Cn1nc(NCCN2CCC2)c2ccccc2c1=O [Example 50, 4-((2-(azetidin-1-yl)ethyl)amino)-2-methylphthalazin-1(2H)-one]	990
CN(CCNc1nn(C)c(=O)c2ccccc12)C1COC1 [Example 51, 2-methyl-4-((2-(methyl(oxetan-3-yl)amino)ethyl)amino)phthalazin-1(2H)-one]	800
C[C@H](Nc1nn(C)c(=O)c2ccccc12)[C@H](c1ccc(S(=O)(=O)c2ccccc2)cc1)N(C)C [Example 55, 4-(((1S,2S)-1-(dimethylamino)-1-(4-(phenylsulfonyl)phenyl)propan-2-yl)amino)-2-methylphthalazin-1(2H)-one]	61
COC(=O)c1ccc([C@@H]([C@H](C)Nc2nn(C)c(=O)c3cccnc23)N(C)C)cc1 [Example 68, Methyl 4-((1S,2S)-1-(dimethylamino)-2-((6-methyl-5-oxo-5,6-dihydropyrido[2,3-d]pyridazin-8-yl)amino)propyl)benzoate]	160
C[C@H](Nc1nn(C)c(=O)c2ccccc12)[C@H](c1ccc(O)cc1)N(C)C [Example 76, 4-(((1S,2S)-1-(dimethylamino)-1-(4-hydroxyphenyl)propan-2-yl)amino)-2-methylphthalazin-1(2H)-one]	42
C[C@H](Nc1nn(C)c(=O)c2cccnc12)[C@H](c1ccc(C(=O)O)cc1)N(C)C [Example 81, 4-((1S,2S)-1-(dimethylamino)-2-((6-methyl-5-oxo-5,6-dihydropyrido[2,3-d]pyridazin-8-yl)amino)propyl)benzoic acid]	98
C[C@H](Nc1nn(C)c(=O)c2cccnc12)[C@H](c1ccc(C(=O)N2CCOCC2)cc1)N(C)C [Example 82, 8-(((1S,2S)-1-(dimethylamino)-1-(4-(morpholine-4-carbonyl)phenyl)propan-2-yl)amino)-6-methylpyrido[2,3-d]pyridazin-5(6H)-one]	59
CC(C)OC(=O)c1ccc([C@@H]([C@H](C)Nc2nn(C)c(=O)c3cccnc23)N(C)C)cc1 [Example 86, Isopropyl 4-((1S,2S)-1-(dimethylamino)-2-((6-methyl-5-oxo-5,6-dihydropyrido[2,3-d]pyridazin-8-yl)amino)propyl)benzoate]	30
C[C@H](Nc1nn(C)c(=O)c2cccnc12)[C@H](c1ccc(C(=O)OCc2ccccc2)cc1)N(C)C [Example 87, benzyl 4-((1S,2S)-1-(dimethylamino)-2-((6-methyl-5-oxo-5,6-dihydropyrido[2,3-d]pyridazin-8-yl)amino)propyl)benzoate hydrochloride]	29
C[C@H](Nc1nn(C)c(=O)c2ccccc12)[C@H](c1ccc(=O)[nH]c1)N(C)C [Example 88, 4-(((1S,2S)-1-(dimethylamino)-1-(6-oxo-1,6-dihydropyridin-3-yl)propan-2-yl)amino)-2-methylphthalazin-1(2H)-one]	80
